Measured values taken from article PMC6820371, “Terbium-161 for PSMA-targeted radionuclide therapy of prostate cancer” (European Journal of Nuclear Medicine and Molecular Imaging, 2019).
Marks after values point to notes of the source that are not given here.

Legend:
[1] = test system: PC-3 PIP tumor cells; assay: Cell viability assay (MTT assay); format: cell-based, human
Experimental: The detailed methods of these studies, including dosimetric calculations, are described in the Supplementary material. The results were analyzed for statistical significance by a two-way ANOVA with Sidak’s multiple comparison post-test using Graph Pad Prism (version 7).
Methods: Tumor cell viability was assessed using a 3-(4,5-dimethylthiazol-2-yl)-2,5-diphenyltetrazolium bromide (MTT) assay as described by Mosmann. PC-3 PIP tumor cells (2500 cells in 200 μL RPMI medium with supplements) were seeded in 96-well plates and incubated overnight (37°C; 5% CO2) to allow adhesion of the tumor cells. The supernatants were removed and the tumor cells were washed once with 200 μL PBS. Afterwards, the tumor cells were incubated in 200 μL RPMI medium (without supplements) containing ^161Tb-PSMA-617 or ^177Lu-PSMA-617 (0.01‒20 MBq/mL), respectively, or just RPMI medium without addition of radioligands. PSMA-negative PC-3 flu tumor cells were also treated with these radioligands under the same experimental conditions using the same concentration range. Additional cell viability assays were performed with PC-3 PIP tumor cells incubated with RPMI medium (without supplements) containing ^161Tb-diethylenetriaminepentaacetic acid (DPTA) or ^177Lu-DTPA (0.01 – 20 MBq/mL). After 4 h incubation (37 °C; 5% CO2), the tumor cells were washed once with 200 μL PBS, followed by the addition of 200 μL of RPMI medium (with supplements) to each well. The tumor cells were left to grow for 6 days under standard cell culture conditions (37 °C, 5% CO2). At Day 6 after treatment, MTT reagent (5 mg/mL in PBS, 30 μL per well) was added to each well to allow the formation of dark-violet formazan crystals within 4 h incubation. The crystals were dissolved by the addition of dimethyl sulfoxide to determine the absorbance at 560 nm using a microplate reader (Victor X3, Perkin Elmer). Cell viability was quantified by expressing the absorbance of the test samples as percentage of the absorbance of control (untreated) cell samples which was set to 100%. Statistical analysis was performed using a two-way ANOVA with Sidak’s multiple comparison post-test in Graph Pad Prism (version 7).

[2] = test system: PC-3 PIP tumor-bearing mice; assay: Therapy study - assessment of potential early side effects; format: in vivo; set-up: key to Histology: Bone marrow sternum / Histology: Sternum (bone) / Histology: Bone marrow femur / Histology: Femur and tibia (bone) / Histology: Salivary glands / Histology: Mandibular lymph node: NHAIR: no histological abnormality is recognized; IC: increased cellularity, myeloid lineage; SH: Sinus histiocytosis; LH: lymphoid hyperplasia; 1: minimal severity; 2: mild; 3: moderate; 4: marked; 5: severe; settings: for ALB (blood plasma) / ALP (blood plasma) / BUN (blood plasma) / CRE (blood plasma) / TBIL (blood plasma): at euthanasia; for Brain mass / Kidney mass / Liver mass / Spleen Mass: day of euthanasia; for Histology: Bone marrow femur / Histology: Bone marrow sternum / Histology: Femur and tibia (bone) / Histology: Mandibular lymph node / Histology: Salivary glands / Histology: Sternum (bone): individual mice M1-M6
Experimental: Potential early side-effects related to the exposure to radiation were evaluated by the assessment of absolute and relative (to body and to brain) organ weights, selected clinical chemistry plasma parameters including creatinine (CRE), blood urea nitrogen (BUN), alkaline phosphatase (ALP), total bilirubin (TBIL), and albumin (ALB), as well as via histological analysis of bone marrow and salivary glands. The data were analyzed for statistical significance (Supplementary material).
Body and organ mass and mass ratios: As a measure to identify undesired side effects, body weights were compared at the day when the first control mouse had to be euthanized (Day 18; Table S3). The relative body weight (RBW) and the relative tumor volume (RTV) were calculated as stated in the main manuscript. Kidneys, liver, spleen and brain were collected and weighed at the day of euthanasia when an endpoint was reached or at the end of the study at Day 84 (Table S3). The organ mass-to-body mass and the organ-mass-to-brain-mass ratios were calculated for kidneys, liver and spleen (Table S4). The average organ masses of mice from each group were analyzed for significance using a one-way ANOVA test with a Tukey’s post correction (GraphPad Prism software, version 7). A p-value of <0.05 was considered as statistically significant.
Blood plasma parameters: Blood was taken from the retrobulbar vein immediately before euthanasia for determination of blood plasma parameters. The values of creatinine (CRE), blood urea nitrogen (BUN), alkaline phosphatase (ALP), total bilirubin (BIL) and albumin (ALB) were determined in the plasma after centrifugation of the blood using a dry chemistry analyzer (DRI-CHEM 4000i, FUJIFILM, Japan) (Table S5). The average blood plasma parameters of each group were analyzed for significance using a one-way ANOVA test with a Tukey’s post correction (GraphPad Prism software, version 7). A p-value of <0.05 was considered as statistically significant.
Necropsy, tissue processing and histological examination: After euthanasia and exsanguination, mice were dissected and, after a full macroscopic examination, sternum, femur and salivary glands were quickly removed and fixed in 4% neutral-buffered formalin (Formafix, Hittnau, Switzerland). After adequate fixation, femoral and sternal bones were decalcified in 10% ethylenediamine tetraacetic acid over a period of 5 days. Both bones and the salivary glands were subsequently trimmed, dehydrated through graded alcohols and routinely paraffin wax embedded. Sections (3–5 µm) were prepared, mounted on glass slides and routinely stained with hematoxylin and eosin (HE). Microscopic findings in the HE-stained livers were classified with standard pathological nomenclature and grading system.

[3] = test system: PSMA-negative PC-3 flu tumor cells; assay: Cell survival assay (clonogenic assay); format: cell-based; settings: 1 MBq/mL and higher, p > 0.05

How did the “Reduction of tumor-cell viability compared to ^177Lu-PSMA-617” value ([1]; 0.1–10 MBq/mL, p < 0.05) turn out when `O=C([O-])CN1CCN(CC(=O)[O-])CCN(CC(=O)NCC2CCC(C(=O)NC(Cc3ccc4ccccc4c3)C(=O)NCCCCC(NC(=O)NC(CCC(=O)O)C(=O)O)C(=O)O)CC2)CCN(CC(=O)[O-])CC1.[161Tb+3]` (centres unmarked) [^161Tb-PSMA-617] was run?
Its value is “significantly more effective”.

And the “Effectiveness in vitro relative to ^177Lu-PSMA-617” value ([1]; viability and survival of PC-3 PIP tumor cells)?
Its value is “up to 3 fold”.

What about the “Body weight at Day 0” value ([2]; 5.0 MBq) of the same compound?
The value was 17 ± 1.2 g.

And the “Body weight at Day 18” value ([2]; 5.0 MBq)?
Its value is 17 ± 1.2 g.

What about the “Body weight at Day of euthanasia” value ([2]; 5.0 MBq) of the same compound?
Its value is 15 ± 1.7 g.

And the “Body weight over time” value ([2]; 5.0 MBq)?
The value was “body weight loss over time”.

And the Kidney-to-body ratio ([2]; 5.0 MBq)?
Its Kidney-to-body ratio is 0.014 ± 0.001.

What about the Kidney-to-brain ratio ([2]; 5.0 MBq) of the same compound?
Its Kidney-to-brain ratio is 0.50 ± 0.11.

And the Liver-to-body ratios ([2]; 5.0 MBq)?
Its Liver-to-body ratios is 0.048 ± 0.010.

And the Liver-to-brain ratios ([2]; 5.0 MBq)?
Its Liver-to-brain ratios is 1.8 ± 0.71.

What about the Spleen-to-body ratios ([2]; 5.0 MBq) of the same compound?
The Spleen-to-body ratios was 0.004 ± 0.001.

What about the Spleen-to-brain ratios ([2]; 5.0 MBq) of the same compound?
Its Spleen-to-brain ratios is 0.16 ± 0.05.

And the Undesired side-effects ([2]; 5.0 MBq and 10 MBq)?
Its Undesired side-effects is “no signs of undesired side-effects were detectable”.

And the “ALB (blood plasma)” value ([2]; 5.0 MBq)?
Its value is 21 ± 1 g/L.

What about the “ALP (blood plasma)” value ([2]; 5.0 MBq) of the same compound?
Its value is 44 ± 1 U/L.

What about the “BUN (blood plasma)” value ([2]; 5.0 MBq) of the same compound?
Its value is 8.3 ± 0.50 mmol/L.

What about the “CRE (blood plasma)” value ([2]; 5.0 MBq) of the same compound?
Its value is less than 18 µmol/L.

What about the “TBIL (blood plasma)” value ([2]; 5.0 MBq) of the same compound?
Its value is 4 ± 1 µmol/L.

And the Brain mass ([2]; 5.0 MBq)?
The Brain mass was 371 ± 15 mg.

And the Kidney mass ([2]; 5.0 MBq)?
Its Kidney mass is 208 ± 19 mg.

What about the Liver mass ([2]; 5.0 MBq) of the same compound?
Its Liver mass is 737 ± 143 mg.

What about the “Spleen Mass” value ([2]; 5.0 MBq) of the same compound?
Its value is 63 ± 13 mg.

What about the “Histology: Bone marrow femur” value ([2]; 5 MBq) of the same compound?
Its value is “NHAIR”.

And the “Histology: Bone marrow sternum” value ([2]; 5 MBq)?
Its value is “NHAIR”.

And the “Histology: Femur and tibia (bone)” value ([2]; 5 MBq)?
Its value is “NHAIR”.

What about the “Histology: Mandibular lymph node” value ([2]; 5 MBq) of the same compound?
Its value is “NHAIR and SH 1 and LH 1”.

What about the “Histology: Salivary glands” value ([2]; 5 MBq) of the same compound?
The value was “NHAIR”.

And the “Histology: Sternum (bone)” value ([2]; 5 MBq)?
Its value is “NHAIR”.

What about the “Histological changes in the bone marrow and the salivary glands attributable to application” value ([2]; 5.0 and 10 MBq/mouse) of the same compound?
The value was “no histological changes”.

And the “Blood plasma parameters compared to control group” value ([2]; 5.0 and 10 MBq/mouse, p>0.05)?
The value was “did not show any significant differences”.

What about the “Body weight at Day 0” value ([2]; 10 MBq) of the same compound?
The value was 18 ± 1.0*^3) g.

And the “Body weight at Day 18” value ([2]; 10 MBq)?
Its value is 19 ± 1.2*^4) g.

And the “Body weight at Day of euthanasia” value ([2]; 10 MBq)?
Its value is 19 ± 1.6*^5) g.

What about the “Body weight over time” value ([2]; 10 MBq) of the same compound?
The value was “remained stable”.

What about the Kidney-to-body ratio ([2]; 10 MBq) of the same compound?
The Kidney-to-body ratio was 0.014 ± 0.001.

And the Kidney-to-brain ratio ([2]; 10 MBq)?
The Kidney-to-brain ratio was 0.64 ± 0.09^*2).

What about the Liver-to-body ratios ([2]; 10 MBq) of the same compound?
The Liver-to-body ratios was 0.054 ± 0.002.

What about the Liver-to-brain ratios ([2]; 10 MBq) of the same compound?
The Liver-to-brain ratios was 2.5 ± 0.87.

And the Spleen-to-body ratios ([2]; 10 MBq)?
The Spleen-to-body ratios was 0.005 ± 0.001.

What about the Spleen-to-brain ratios ([2]; 10 MBq) of the same compound?
The Spleen-to-brain ratios was 0.23 ± 0.05^*3).

What about the “ALB (blood plasma)” value ([2]; 10 MBq) of the same compound?
The value was 19 ± 1 g/L.

What about the “ALP (blood plasma)” value ([2]; 10 MBq) of the same compound?
Its value is 54 ±15 U/L.

And the “BUN (blood plasma)” value ([2]; 10 MBq)?
Its value is 7.8 ± 1.3 mmol/L.

And the “CRE (blood plasma)” value ([2]; 10 MBq)?
Its value is less than 18 µmol/L.

And the “TBIL (blood plasma)” value ([2]; 10 MBq)?
Its value is 4 ± 1 µmol/L.

And the Brain mass ([2]; 10 MBq)?
Its Brain mass is 402 ± 18 mg.

And the Kidney mass ([2]; 10 MBq)?
The Kidney mass was 258 ± 41*^5) mg.

What about the Liver mass ([2]; 10 MBq) of the same compound?
Its Liver mass is 994 ± 65*^5) mg.

What about the “Spleen Mass” value ([2]; 10 MBq) of the same compound?
Its value is 92 ± 22*^5) mg.

And the “Histology: Bone marrow femur” value ([2]; 10 MBq)?
The value was “NHAIR”.

And the “Histology: Bone marrow sternum” value ([2]; 10 MBq)?
The value was “IC 1 and NHAIR”.

What about the “Histology: Femur and tibia (bone)” value ([2]; 10 MBq) of the same compound?
Its value is “NHAIR”.

And the “Histology: Mandibular lymph node” value ([2]; 10 MBq)?
The value was “SH 2 LH 1 and SH 1 and LH 1 and NHAIR”.

And the “Histology: Salivary glands” value ([2]; 10 MBq)?
Its value is “NHAIR”.

And the “Histology: Sternum (bone)” value ([2]; 10 MBq)?
The value was “NHAIR”.

What about the “Effect on survival of PC-3 flu cells compared to ^177Lu-PSMA-617” value [3] of the same compound?
Its value is “tendency of a more pronounced effect”.
